Patent US20250376481A1, “POLYCYCLIC CARBAMOYL PYRIDONE DERIVATIVE, PREPARATION METHOD THEREFOR AND PHARMACEUTICAL COMPOSITION THEREOF” (NANJING AIDEA PHARMACEUTICAL TECHNOLOGY CO., LTD., priority 2021, published 2025)
Like-named read-outs stand apart in the source and are kept apart here.

Experiments:
[1] = Oil-water partition coefficient (n-octanol / pH 7.4 phosphate buffer); type: physicochemical
Method: • a) To a 5 mL glass bottle was added 1 mL n-octanol and 1 mL pH 7.4 phosphate buffer, respectively. • b) The compound was added to a DMSO solution to prepare a compound stock solution with a concentration of 10 mM, and then 20 μL compound stock solution was added to the mixture solution of n-octanol and phosphate buffer. • c) Shaken at room temperature for 1 hour at a rate of 300/minute. • d) Kept for 30 minutes, and after the solution was completely layered, the upper and lower layers of the solution were taken separately to a 96 well deep well plate, and LC-MS/MS was used for detection via injection. • e) The aliquots of 1-octanol and aqueous solution were diluted consecutively with DMSO to obtain the final sample for LC-MS/MS analysis. Three consecutive dilutions were carried on every 1-octanol phase with covering a concentration range of 2500 fold. Every final aqueous phase was diluted consecutively twice with covering a concentration range of 100 fold. The MS peak areas of these solutions were used to generate log (peak area) based on the log (relative concentration) calibration line.
[formula] • Coct=sample concentration in n-octanol • Caq=sample concentration in pH 7.4 phosphate buffer

[2] = Cytotoxicity test (cell viability, CellTier Glo); type: cell-based; conditions: human
Method: (§1) • Virus: The HIV-1 pseudovirus used in this experiment was a replication deficient virus, which is constructed by WuXi AppTec. • HEK 293T cell line was purchased from ATCC, and Item No. is CRL-11268. Cells were cultured in DMEM medium with 10% fetal bovine serum and 1% double antibody. • Reagents
(§2) On the first day, HEK 293T cells were inoculated into a 96 well test plate at the density of 55000 cells per well and […] per well, and incubated overnight in a 5% CO2 and 37° C. incubator.
(§3) On the second day, the tested compounds (compounds provided in the example of the present invention) and the control compounds were diluted 4-fold with cell culture medium for a total of 8 concentration points, and 50 μL diluted compounds were added to each well, and each well was performed duplicate.
(§4) Cell Control (cells, no compound treatment or virus infection) and virus control (cells infected with virus, no compound treatment) were set up. The final initial test concentration of the tested compounds and control compounds was 1000 nM (Table 1), and the amount of virus infection was 100 TCID50 per well. The total volume of cell culture medium was 200 μL per well, and the final concentration of DMSO in the culture medium was 0.5%.
(§5) The cells were cultured in a 5% CO2 and 37° C. incubator for additional 3 days.
(§6) On the fifth day, in the cytotoxicity test plates, 100 μL cell supernatant were sucked from each well, 100 μL cell viability assay reagent CellTier Gloin was added in dark. Cell viability in each well was detected by BioTek enzyme-linked immunosorbent assay reader, and the data was used for sample cytotoxicity analysis.
(§7) Dose-response curve was drawn through GraphPad Prism software. The calculation equations for antiviral activity (% Inhibition) and cell viability (% cell viability) were as follow:
(§8) The values of EC50 and CC50 were analyzed by GraphPad Prism (version 5) software, and nonlinear fitting analysis was used for inhibitory activity and cell viability of the compounds, and the fitting method was “log (inhibitor) vs. response—Variable slope”.
(§9) 3. The HIV-1 pseudovirus experiment was applied to determinate the in vitro antiviral activity and cytotoxicity of the tested compound on HEK 293T cells, and the experimental results were shown in the table below.

[3] = system: HIV-1 pseudovirus; test: HIV-1 pseudovirus infection test (antiviral activity, luciferase); type: cell-based
Method: as §1, §2, §3
Subsequently, the HIV-1 pseudovirus was diluted to 100 TCID50/50 μL with cell culture medium, and 50 μL diluted virus was added to each well.
as §4, §5
On the fifth day, in the antiviral activity test plates, 100 μL cell supernatant was sucked away from each well, 100 μL 2X luciferase reporter gene assay reagent Britellite plus was added in dark. The luciferase activity in each well of the test plates was detected by Envision. The data was used for sample antiviral activity analysis.
as §7, §8, §9

[4] = system: HEK 293T cells; test: Cytotoxicity test (cell viability, CellTier Glo); type: cell-based; conditions: HEK 293T cells, highest test concentration 1000 nM
Method: as §1, §2, §3, §4, §5, §6, §7, §8, §9

[5] = PK test of compounds (mouse); type: in vivo, ICR mice; conditions: for bioavailability (in words): PK test in mice; for half-life / bioavailability: male, mouse, plasma, ICR mice; for half-life: PO 10 mg/kg; for bioavailability: PO 10 mg/kg (IV 2 mg/kg)
Method: The mice were not fed until 5 pm on the day before administration, and fasted overnight with water. The mice in Group IV were administered with 2 mg/kg, while those in Group PO were administered with 10 mg/kg. Feeding was resumed 2 hours after administration. For mice administered by gavage, 20 μL blood was collected from the saphenous vein in calf before administration and 0.25, 0.5, 1, 2, 4, 8, and 24 hours after administration, respectively, and placed in EDTA-K2 anticoagulant blood collection tubes, and then the blood would be placed on ice until centrifuged to obtain plasma samples. The plasma samples were centrifuged at 4° C. (3500 rpm, 10 min), and after separation, the samples were transferred to EP tubes and stored at −80° C. for detection. For mice admistrated by intravenous injection, 20 μL blood was collected from the saphenous vein in calf before administration and 0.0833, 0.25, 0.5, 1, 2, 4, 8 and 24 hours after administration, respectively, and placed in EDTA-K2 anticoagulant blood collection tubes, and then the blood would be placed on ice until centrifuged to obtain a plasma sample. The plasma samples were centrifuged at 4° C. (3500 rpm, 10 min), and after separation, the samples were transferred to EP tubes and stored at −80° C. for detection. The level of tested compounds in blood plasma of mice, who had orally administrated with different concentrations of drugs were determinated: 10 μL mouse blood at each time point after administration was taken, 100 μL methanol containing an internal standard (100 ng/mL) was added, vortex mixed for 1 minute, centrifuged at 4° C. (12000 rmp, 5 minutes), and 1 μL supernatant was taken from the plasma samples for LC-MS/MS analysis.

[6] = molecular target: HIV-1 integrase (Human immunodeficiency virus type 1 group M subtype B, UniProt P04585); test: Integrase activity test (HIV-1 Integrase Assay Kit EZ-1700)
Method: A non-radioactive assay method, an integrase assay kit, was used to measure integrase activity quantitatively.
Each component was prepared according to the instructions of the kit; preparation of test sample, 5 mM DMSO solution was prepared for backup, working solution was prepared according to the initial final concentration determined at the time of method establishment, with a 4-fold gradient dilution and 10 concentrations.
• (1) The working solution of sample was prepared according to the initial concentration determinated during the methodology establishment process; • (2) Reagents were prepared according to the methods provided in the kit; • (3) DS DNA coating—blocking—addition of integrase solution—addition of sample—addition of TS DNA—addition of HRP antibody-addition of TMB peroxidase substrate—TMB termination reaction-detection of light absorption value at 450 nm.
The software Graphpad Prism 8.0 was applied and the calculation equation of Log (inhibitor) vs. response variable slope was used to fit the IC50 curve.

[7] = Human immunodeficiency virus 1, HEK-293T, 72 h
[8] = HIV-1 pseudovirus, HEK 293T cells, 3 days, luciferase, read-out: EC50
[9] = n-octanol / pH 7.4 phosphate buffer, pH 7.4, read-out: Log D (pH 7.4)

## O=C(NCc1ccc(F)cc1F)c1cn2c(c(O)c1=O)C(=O)N1C(C2)OCCC12CC2 (racemic) [Compound 13, (2,4-difluorophenyl)-7′-hydroxy-6′,8′-dioxo-2′,3′,6′,8′,12′,12a′-hexahydrospiro[cyclopropane-1,4′-pyridino[1′,2′:4,5]pyrazine[2,1-b][1,3]oxazine]-9′-formamide]
[1]; pH 7.4
  logD: 1.5
[2]
  CC50 at 3 days: > 1000 nM
[3]; [7]
  EC50: 1.05 nM

## C[C@H]1N2C(=O)c3c(O)c(=O)c(C(=O)NCc4ccc(F)cc4F)cn3C[C@@H]2OCC12CCCCC2 [Compound 4]
[2]
  CC50 at 3 days: > 1000 nM
[3]; [7]
  EC50: 5.83 nM

## C[C@H]1N2C(=O)c3c(O)c(=O)c(C(=O)NCc4ccc(F)cc4F)cn3C[C@@H]2OCC12CCCC2 [Compound 3]
[2]
  CC50 at 3 days: > 1000 nM
[3]; [7]
  EC50: 5.63 nM

## (S)—N-(2,4-difluorophenyl)-6′-hydroxy-5′,7′-dioxo-5′,7′,11′,11a′-tetrahydro-2′H-spiro[cyclopropane-1,3′-oxazole[3,2-a]pyridino[1,2-d]pyrazine]-8′-formamide [Compound 17]
[4]
  CC50: > 1000 nM
[3]; [8]
  EC50: 3.73 nM

## C[C@@H]1CC2(CCOCC2)O[C@H]2Cn3cc(C(=O)NCc4ccc(F)cc4F)c(=O)c(O)c3C(=O)N12 [Compound 9]
[2]
  CC50 at 3 days: > 1000 nM
[3]; [7]
  EC50: 5.09 nM

## C[C@H]1N2C(=O)c3c(O)c(=O)c(C(=O)NCc4ccc(F)cc4F)cn3C[C@@H]2OC12CCCCC2 [Compound 12]
[2]
  CC50 at 3 days: > 1000 nM
[3]; [7]
  EC50: 4.93 nM

## C[C@H]1N2C(=O)c3c(O)c(=O)c(C(=O)NCc4ccc(F)cc4F)cn3C[C@@H]2OC12CC2 [Compound 10]
[5]
  bioavailability (in words): good bioavailability
  half-life: 1.53 ± 1.06 h
  bioavailability: 32.9%
[1]; [9]
  logD: 1.9
[2]
  CC50 at 3 days: > 1000 nM
[3]; [7]
  EC50: 2.7 nM

## O=C(NCc1ccc(F)cc1F)c1cn2c(c(O)c1=O)C(=O)N1C(C2)OCC12CC2 (racemic) [Compound 16]
[1]; pH 7.4
  logD: 1.8
[2]
  CC50 at 3 days: > 1000 nM
[3]; [7]
  EC50: 1.11 nM

## Cc1nnc(C(=O)NC(C)(C)c2nc(C(=O)NCc3ccc(F)cc3)c(O)c(=O)n2C)o1 [RAL, Raltegravir, reference compound]
[2]; HEK 293T cells, highest test concentration 1000 nM, read-out: CC50
  CC50 at 3 days: > 1000 nM
[3]; HEK 293T cells
  antiviral activity against HIV-1 pseudovirus (in words): have antiviral activity
[3]; [7]
  EC50: 3.42 nM

## C[C@@H]1CC2(CCCCC2)O[C@H]2Cn3cc(C(=O)NCc4ccc(F)cc4F)c(=O)c(O)c3C(=O)N12 [Compound 8]
[2]
  CC50 at 3 days: > 1000 nM
[3]; [7]
  EC50: 13.7 nM

## (R)—N-(2,4-difluorophenyl)-6′-hydroxy-5′,7′-dioxo-5′,7′,11′,11a′-tetrahydro-2′H-spiro[cyclopropane-1,3′-oxazole[3,2-a]pyridino[1,2-d]pyrazine]-8′-formamide [Compound 18]
[4]
  CC50: > 1000 nM
[3]; [8]
  EC50: 3.34 nM

## C[C@@H]1CC2(CC2)O[C@H]2Cn3cc(C(=O)NCc4ccc(F)cc4F)c(=O)c(O)c3C(=O)N12 [Compound 6]
[5]
  bioavailability (in words): good bioavailability
  half-life: 2.68 ± 0.66 h
  bioavailability: 42.5%
[1]; [9]
  logD: 2
[2]
  CC50 at 3 days: > 1000 nM
[3]; [7]
  EC50: 3.03 nM

## O=C(NCc1c(F)cc(F)cc1F)c1cn2c(c(O)c1=O)C(=O)N1[C@H]3CC[C@H](C3)O[C@@H]1C2 [BIC, Bictegravir, reference compound]
[6]
  IC50: 21.2 nM

## (S)—N-(2,4-difluorophenyl)-7′-hydroxy-6′,8′-dioxo-2′,3′,6′,8′,12′,12a′-hexahydrospiro[cyclopropane-1,4′-pyridino[1′,2′:4,5]pyrazine[2,1-b][1,3]oxazine]-9′-formamide [Compound 14]
[4]
  CC50: > 1000 nM
[3]; [8]
  EC50: 8.72 nM

## C[C@@H]1CC2(CCCC2)O[C@H]2Cn3cc(C(=O)NCc4ccc(F)cc4F)c(=O)c(O)c3C(=O)N12 [Compound 7]
[2]
  CC50 at 3 days: > 1000 nM
[3]; [7]
  EC50: 11.6 nM

## C[C@H]1N2C(=O)c3c(O)c(=O)c(C(=O)NCc4ccc(F)cc4F)cn3C[C@@H]2OCC12CCOCC2 [Compound 5]
[2]
  CC50 at 3 days: > 1000 nM
[3]; [7]
  EC50: 4.45 nM

## C[C@]12CC[C@H]3[C@@H](CCC4=CC(=O)CC[C@@]43C)[C@@H]1CC[C@@H]2O [Testosterone, reference compound]
[1]; n-octanol / pH 7.4 phosphate buffer, read-out: Log D (pH 7.4)
  logD: 2.85

## C[C@@H]1CCO[C@H]2Cn3cc(C(=O)NCc4ccc(F)cc4F)c(=O)c(O)c3C(=O)N12 [DTG, Dolutegravir, reference compound]
[5]
  half-life: 3.7 ± 0.09 h
  bioavailability: 46%
[1]; [9]
  logD: 1.6
[2]
  CC50 at 3 days: > 1000 nM
[3]; HEK 293T cells
  antiviral activity against HIV-1 pseudovirus (in words): have antiviral activity
[3]; [7]
  EC50: 1.49 nM

## C[C@H]1N2C(=O)c3c(O)c(=O)c(C(=O)NCc4ccc(F)cc4F)cn3C[C@@H]2OCC12CCC2 [Compound 2]
[5]
  bioavailability (in words): good bioavailability
  half-life: 1.94 ± 0.04 h
  bioavailability: 50.8%
[1]; [9]
  logD: 2.5
[2]
  CC50 at 3 days: > 1000 nM
[3]; [7]
  EC50: 1.19 nM

## (R)—N-(2,4-difluorophenyl)-7′-hydroxy-6′,8′-dioxo-2′,3′,6′,8′,12′,12a′-hexahydrospiro[cyclopropane-1,4′-pyridino[1′,2′:4,5]pyrazine[2,1-b][1,3]oxazine]-9′-formamide [Compound 15]
[4]
  CC50: > 1000 nM
[3]; [8]
  EC50: 14 nM
